The values that follow come from PMC12410356 (International Journal for Parasitology: Drugs and Drug …, 2025).

The structures appear in SMILES notation.

The subject of data set [1] is E. multilocularis metacestode vesicles. As to the kind of experiment: Metacestode vesicle viability assay (ATP, CellTiter-Glo). Type of data set: cell-based, Echinococcus multilocularis. On the procedure: Viability was assessed after 12 days using the same metacestode vesicles as for the PGI release assay. Triton X-100 was added to each well to a final concentration of 0.1 %. Subsequently the metacestode vesicles were broken mechanically and 50 μL of the supernatant was mixed with 50 μL of CellTiter-Glo® buffer (Promega, Dübendorf, Switzerland). Measurements were performed on a HIDEX Sense microplate reader.
For orientation: ATP-based viability assays read luminescence as a measure of living cells.

For data set [2] the test system is unchanged. The data set is described as follows: Phosphoglucose isomerase (PGI) release assay (damage-marker release) on metacestode vesicles. Type of data set: cell-based, Echinococcus multilocularis. As to conditions: 10 μM; for PGI d5 (relative PGI release): 5 days; for PGI d12 (relative PGI release): 12 days.
Setting [3] is: overview screen, 10 μM, singlets, 12 days, relative to DMSO control.
The mark [4] stands for this setting: overview screen, singlets, relative to 0.1 % Triton X-100, DMSO subtracted.
[5] abbreviates: confirmation screen, triplicates, mean.

On to `COC1CC2CCC(C)C(O)(O2)C(=O)C(=O)N2CCCCC2C(=O)OC(C(C)CC2CCC(OCCO)C(OC)C2)CC(=O)C(C)/C=C(\C)C(O)C(OC)C(=O)C(C)CC(C)/C=C/C=C/C=C/1C` (stereo not drawn) [MMV639951], for which, in data set [1] (setting [3]), the “Viability d12 (relative viability)” value was 85.7507%. Also, in data set [2] (setting [4]), the “PGI d5 (relative PGI release)” value is given as -0.3944% and the “PGI d12 (relative PGI release)” value is recorded as -20.0049%.
As to `CC(C)=CCC/C(C)=C\CNCCNC1C2CC3CC(C2)CC1C3` (stereo not drawn) [MMV687273], the “Viability d12 (relative viability)” value in data set [1] (setting [3]) was 47.5933%. Further, in data set [2] (setting [4]), the “PGI d5 (relative PGI release)” value is 0.6754% and the “PGI d12 (relative PGI release)” value was -4.6575%.
As for `O=C(Nc1ccc(Cl)c(C(F)(F)F)c1)C(CCCl)C(=O)Nc1ccc(Cl)c(C(F)(F)F)c1` [MMV1580840], the “Viability d12 (relative viability)” value in data set [1] (confirmation screen, 10 μM, triplicates, mean, 12 days) was 81.80%; in data set [1] (setting [3]), 11.8566%. The “PGI d5 (relative PGI release)” value in data set [2] (setting [5]) is listed as -0.17%; in data set [2] (setting [4]), 14.7528%. In addition, the “PGI d12 (relative PGI release)” value was 0.36% in data set [2] (setting [5]) and 31.1069% in data set [2] (setting [4]).
For `OB1OCc2cc(Cl)ccc21` [MMV1634363], the “Viability d12 (relative viability)” value in data set [1] (setting [3]) was determined as 101.699%. Besides, in data set [2] (setting [4]), the “PGI d5 (relative PGI release)” value is recorded as -0.4278% and the “PGI d12 (relative PGI release)” value is -12.2339%.
The corresponding values for `O=S(=O)(NCB(O)O)c1ccc(-c2nnn[nH]2)cc1C(F)(F)F` [MMV1782411] are 79.3081%, -0.527% and -17.35%.
In the case of `NC(=O)c1cnccn1` [MMV003249], the “Viability d12 (relative viability)” value in data set [1] (setting [3]) worked out at 123.464%. Besides, in data set [2] (setting [4]), the “PGI d5 (relative PGI release)” value turned out to be 1.909% and the “PGI d12 (relative PGI release)” value is recorded as -3.346%.
For `CN(C)CCCNC(=O)c1ccc(-c2cc(O)c3ncccc3c2)cc1` [MMV1580488] the same measures were 174.002%, -1.606% and -1.51%.
Consider `CC1(C)C[C@H]1C(=O)N/C(=C\CCCCSC[C@@H](N)C(=O)O)C(=O)O.[Na+]` [MMV1613559], for which, in data set [1] (setting [3]), the “Viability d12 (relative viability)” value is 85.3181%. In addition, in data set [2] (setting [4]), the “PGI d5 (relative PGI release)” value is recorded as -0.3777% and the “PGI d12 (relative PGI release)” value is recorded as -1.053%.
`CCCCCOc1ccc(/C=C2\Oc3c(ccc(O)c3O)C2=O)c(O)c1` [MMV1580851]: the “Viability d12 (relative viability)” value in data set [1] (setting [3]) is given as 137.102%. Also, in data set [2] (setting [4]), the “PGI d5 (relative PGI release)” value was 1.174% and the “PGI d12 (relative PGI release)” value is recorded as -13.3457%.
On to `CCc1cc(Nc2cc(=O)n(CCN3CCN(C(=O)c4ccccc4)CC3)c(=O)[nH]2)ccc1C` [MMV1634383], for which the “Viability d12 (relative viability)” value in data set [1] (setting [3]) amounted to 104.622%. In addition, in data set [2] (setting [4]), the “PGI d5 (relative PGI release)” value worked out at 0.8629% and the “PGI d12 (relative PGI release)” value was 52.997%.
For `CCCCc1ccc(S(=O)(=O)Nc2cc(C)on2)cc1` [MMV1782108] the same measures were 50.3487%, -2.561% and -24.5808%.
In the case of `Oc1cc(-c2cccc3ccccc23)[nH]n1` [MMV422940], the “Viability d12 (relative viability)” value in data set [1] (setting [3]) is given as 50.1817%. In data set [2] (setting [4]), the “PGI d5 (relative PGI release)” value is -1.4338% and the “PGI d12 (relative PGI release)” value is on record as -25.9471%.
Consider `CC1(C)Cc2c(C#N)c(SCCc3ccccc3)nc(N3CCOCC3)c2CO1` [MMV1549626], for which the “Viability d12 (relative viability)” value in data set [1] (setting [3]) turned out to be 93.3497%. Besides, in data set [2] (setting [4]), the “PGI d5 (relative PGI release)” value is given as -2.265% and the “PGI d12 (relative PGI release)” value is listed as -14.2052%.
As to `O=C(NCc1ncc(C(F)(F)F)cc1Cl)c1c(Cl)cccc1Cl` [MMV689401], in data set [1] (setting [3]), the “Viability d12 (relative viability)” value is given as 22.5442%. Moreover, in data set [2] (setting [4]), the “PGI d5 (relative PGI release)” value is -2.654% and the “PGI d12 (relative PGI release)” value is recorded as -25.1085%.
On to `O=[N+]([O-])c1cn2c(n1)OC[C@@H](OCc1ccc(OC(F)(F)F)cc1)C2` [MMV688755], for which, in data set [1] (setting [3]), the “Viability d12 (relative viability)” value amounted to 91.4293%. For the same molecule, in data set [2] (setting [4]), the “PGI d5 (relative PGI release)” value was -1.0977% and the “PGI d12 (relative PGI release)” value was -12.4687%.
For `COc1ccc(CNC(=O)C2CCN(C(C)c3cccc4ccccc34)CC2)cc1` (stereo not drawn) [MMV1634397], the “Viability d12 (relative viability)” value in data set [1] (setting [3]) is listed as 68.3168%. Besides, in data set [2] (setting [4]), the “PGI d5 (relative PGI release)” value is reported as 1.669% and the “PGI d12 (relative PGI release)” value is listed as -0.9153%.
Take `CCc1cc(CCC(=O)Nc2ccccc2O)c(=O)[nH]c1C` [MMV1782106]: the “Viability d12 (relative viability)” value in data set [1] (setting [3]) is given as 488.194%. In data set [2] (setting [4]), the “PGI d5 (relative PGI release)” value turned out to be 1.217% and the “PGI d12 (relative PGI release)” value is recorded as -17.9747%.
Take `C=CCN(C(=O)OCc1ccc([N+](=O)[O-])cc1)C1CCN(CC[C@](C)(CN(C)S(=O)(=O)c2ccccc2)c2ccccc2)CC1` [MMV1782214]: the “Viability d12 (relative viability)” value in data set [1] (setting [3]) is 76.726%. In data set [2] (setting [4]), the “PGI d5 (relative PGI release)” value was determined as 0.9992% and the “PGI d12 (relative PGI release)” value was 3.53%.
For the molecule `O=C(NC(=O)N1CCCc2ccccc21)c1cccc(Cl)c1` [MMV1782351], the “Viability d12 (relative viability)” value in data set [1] (setting [3]) was determined as 118.649%. In addition, in data set [2] (setting [4]), the “PGI d5 (relative PGI release)” value is reported as -2.457% and the “PGI d12 (relative PGI release)” value is on record as -24.682%.
Turning to `CS(=O)(=O)c1ccc(Oc2ccc(Cl)cc2)cc1` [MMV1634404], the “Viability d12 (relative viability)” value in data set [1] (setting [3]) came to 57.7676%. Besides, in data set [2] (setting [4]), the “PGI d5 (relative PGI release)” value is listed as -0.3308% and the “PGI d12 (relative PGI release)” value is listed as -18.6197%.
Take `Cn1c2ccccc2c(=O)c2c(O)cccc21` [MMV1580500]: in data set [1] (setting [3]), the “Viability d12 (relative viability)” value is listed as 90.8954%. Also, in data set [2] (setting [4]), the “PGI d5 (relative PGI release)” value is 1.098% and the “PGI d12 (relative PGI release)” value is reported as -0.5737%.
Turning to `COc1cc(Cc2cc(N)nc(N)n2)cc(OC)c1OC` [MMV1579846], the “Viability d12 (relative viability)” value in data set [1] (setting [3]) came out at 26.7191%. Also, in data set [2] (setting [4]), the “PGI d5 (relative PGI release)” value was 1.265% and the “PGI d12 (relative PGI release)” value turned out to be 19.1796%.
For `O=C(CSc1nnc(Br)n1-c1ccc(C2CC2)c2ccccc12)Nc1ccc(C(=O)O)cc1Cl` [MMV1782213], the “Viability d12 (relative viability)” value in data set [1] (setting [3]) was 116.37%. In data set [2] (setting [4]), the “PGI d5 (relative PGI release)” value worked out at 1.533% and the “PGI d12 (relative PGI release)” value is -0.7445%.
Take `CC(N)C12CC3CC(CC(C3)C1)C2` (stereo not drawn) [MMV637855]: in data set [1] (setting [3]), the “Viability d12 (relative viability)” value turned out to be 63.7477%. In data set [2] (setting [4]), the “PGI d5 (relative PGI release)” value is recorded as 0.08745% and the “PGI d12 (relative PGI release)” value is -0.5462%.
For the molecule `COc1ccc(-n2cnc3cc(NCc4ccco4)ccc32)cc1` [MMV617332], the “Viability d12 (relative viability)” value in data set [1] (setting [3]) turned out to be 117.278%. Also, in data set [2] (setting [4]), the “PGI d5 (relative PGI release)” value amounted to 0.2921% and the “PGI d12 (relative PGI release)” value is -0.1496%.
Consider `CCn1cc(C(=O)O)c(=O)c2cc(F)c(N3CCNC(C)C3)c(F)c21.Cl` (stereo not drawn) [MMV002350], for which the “Viability d12 (relative viability)” value in data set [1] (10 µM) is 92.559%. For the same molecule, in data set [2] (setting [4]), the “PGI d5 (relative PGI release)” value was 0.8503% and the “PGI d12 (relative PGI release)” value is given as 0.3517%.
Consider `O=C(NC12CC3CC(CC(C3)C1)C2)c1cc2ccccc2[nH]1` [MMV1578577], for which, in data set [1] (setting [3]), the “Viability d12 (relative viability)” value was 82.8787%. Moreover, in data set [2] (setting [4]), the “PGI d5 (relative PGI release)” value is on record as -0.2186% and the “PGI d12 (relative PGI release)” value is listed as -2.179%.
The corresponding values for `CCNC(=O)Nc1cn2c(-c3ncc(CC)cn3)cc(-c3cccnc3)cc2n1` [MMV1782403] are 142.751%, -2.559% and 16.0574%.
